Test results reported in BindingDB's records for doi:10.1021/jm00167a014 (Merrell Dow Research Institute, 1990).

Molecular target: Peroxisomal N(1)-acetyl-spermine/spermidine oxidase (Rattus norvegicus)
Experiment: Tested for in vitro binding affinity against polyamine oxidase after intraperitoneal administration in the rat liver

Ki [µM]	SMILES
2.5	C=C=CCNCCCNCCCCCCCCNCCCNCC=C=C
3	C=C=CCNCCCNCCCNCC=C=C
